# Assay results from patent publication US20260049101A1, “TOPICAL TREATMENT OF SKIN CANCER USING OLIGOPEPTIDES” (BACOBA AG, priority 2022, published 2026).
# pIC50: −log10 of the molar value. Square brackets hold non-standard residues; d marks the D form. Peptide text beside a SMILES is read from it. * marks the point of attachment. NH(1-CH2NMe2-cBu) = CN(C)CC1(N*)CCC1; Benzoyl(4-F) = O=C(c1ccc(F)cc1)*; hCha = N[C@@H](CCC1CCCCC1)C(=O)O; Aib = CC(C)(N)C(=O)O; βAla = NCCC(=O)O
# Experiments:
# [1] = test system: B16-F10 mouse melanoma cells; experiment: In vitro cell viability assay on B16-F10; format: cell-based; conditions: B16-F10, 72 hours, resazurin
# Protocol: In vitro cell viability assay methodology.
# Half maximal inhibitory concentration (IC50) of the compounds was determined by seeding of cell culture into 96 well-plates (Cat #353072, Corning) and treated the day after with dose-escalating concentrations of the compounds (from 0.001 μM to 10 μM in RPMI-1640 complete) for 72 hours. 1000 cells were seeded per well. […] Triplicates were seeded for each condition. […] Vehicle treated wells were set to 100% viability.
# [2] = test system: B16F10 xenografts in C57BL/6 mice; experiment: In vivo efficacy test, dermal treatment of intradermal B16-F10 tumours (tumour volume); set-up: species or system mouse; conditions: for T/C [%] (ratio of mean tumour volume of treated over control) / RTV Mean / RTV Median / Tumour Volume [cm^3] Mean / Tumour Volume [cm^3] Median: 20 μl of 5% 6027 dermally daily from day 1; for RTV Mean / RTV Median / Tumour Volume [cm^3] Mean / Tumour Volume [cm^3] Median: n=8
# Protocol: In vivo efficacy test methodology. C57Bl/6 mice (Janvier Labs); females; 6-8 weeks old at beginning of the treatment. The tumour was induced through intradermal inoculation of 1×10^5 cells per mouse intradermally in the skin of the neck. A total of 24 mice were used (n=8 for vehicle, n=8 for 5% 6027, n=8 for leucinostatin A 0.2%). Test item was applied starting on day 1 after inoculation of the tumour cells. The test items of 20 μl of 5% 6027 and of 0.2% Leucinostatin A were applied dermally with a pipette once a day every day for up to 21 days to the intact skin area of about 1 cm^2 on the site were the B16-F10 cells had been injected. If ulceration occurred then the animal was removed from the test and sacrificed.
# The read out was tumour volume measured three times a week expressed as tumour volume (in cm^3). Additionally, tumour samples were taken for histological analysis (Tumour FFPE) (2 mice per group).
# [3] = test system: patient derived Basal Cell Carcinoma (BCC); format: cell-based, human; conditions: 500 nM, 4 days, vs DMSO
# [4] = Franz cells, 48 hours, donor 0.1% 6027 in DMSO, acceptor PBS + 2% Volpo; % of total 6027
# Protocol: Pig ears from freshly slaughtered pigs, not older than 5 months and of both sexes, were obtained from the slaughterhouse Bell Schweiz AG (Basel, Switzerland). The ears were washed with tap water and the hairs were removed with an electric clipper. The skin was separated from the underlying cartilage from the backside of the ear by using a scalpel. After washing the skin again, it was stored in aluminium foil at −20° C. for no longer than one month.
# After thawing the frozen skin, it was cut into adequate circles and the skin thickness was measured with a calliper. The skin was mounted into the FDC, tightly sealed with Teflon band and fixed in special designed holder. Then the acceptor compartment was equipped with a magnetic stirrer, filled with placebo formulation and equilibrated for one hour. To check the barrier integrity and to be sure that there are no invisible damages from skin preparation TEWL (transepidermal water loss) was measured. The FDCs were then placed in the water bath +32° C.±1 over a magnetic stirrer (500 rpm). Due to differences of each FDC, the skin application area for drug permeation was measured and calculated for each cell in advance. Consequently, the amount of 6027 for the donor compartment had to be adjusted for the infinite-dose experiment to 284.1 μL/cm^2.
# At predefined time points 50 μL samples were taken from the acceptor compartment. The missing volume was replaced with the corresponding placebo formulation.
# At the end of the permeation experiment and before reassembling the FDCs, the donor compartments were washed out with 10 mL ACN:H2O (55:45).
# To extract 6027 from the skin, the frozen skin was cut into small pieces and grinded by a cryogenic grinder Freezer/Mill® from Spex SamplePrep (Metuchen, USA). The setting was 10 min precooling and a rate of 10 CPS for 4 cycles with 2 minutes. The resulting powder was resuspended in 2 mL ACN:H2O (55:45). […]
# The concentrations of 6027 were determined by using HPLC-MS from Agilent Technologies. […]
smiles,measurement,setting,value
"CC(C)C[C@H](NC(=O)[C@H](CCC1CCCCC1)NC(=O)[C@@H]1CCCN1C(=O)c1ccc(F)cc1)C(=O)NC(C)(C)C(=O)N[C@@H](CC(C)C)C(=O)N[C@@H](CC(C)C)C(=O)NC(C)(C)C(=O)NC(C)(C)C(=O)NCCC(=O)NC1(CN(C)C)CCC1 [Compound 6027, (2S)-2-[(2S)-4-cyclohexyl-2-{[(2S)-1-(4-fluorobenzoyl)pyrrolidin-2-yl]formamido}butanamido]-N-(1-{[(1S)-1-{[(1S)-1-({1-[(1-{[2-({1-[(dimethylamino)methyl]cyclobutyl}carbamoyl)ethyl]carbamoyl}-1-methylethyl)carbamoyl]-1-methylethyl}carbamoyl)-3-methylbutyl]carbamoyl}-3-methylbutyl]carbamoyl}-1-methylethyl)-4-methylpentanamide] ({Benzoyl(4-F)}-P[hCha]L[Aib]LL[Aib][Aib][βAla]-{NH(1-CH2NMe2-cBu)})",pIC50,[1],6.68
same,T/C [%] (ratio of mean tumour volume of treated over control),[2]; day 1,100%
same,RTV Mean,[2]; day 1,1.0
same,RTV Median,[2]; day 1,1.0
same,Tumour Volume [cm^3] Mean,[2]; day 1,0.001 cm^3
same,Tumour Volume [cm^3] Median,[2]; day 1,0.001 cm^3
same,T/C [%] (ratio of mean tumour volume of treated over control),[2]; day 2,100%
same,RTV Mean,[2]; day 2,1.0
same,RTV Median,[2]; day 2,1.0
same,Tumour Volume [cm^3] Mean,[2]; day 2,0.001 cm^3
same,Tumour Volume [cm^3] Median,[2]; day 2,0.001 cm^3
same,T/C [%] (ratio of mean tumour volume of treated over control),[2]; day 4,100%
same,RTV Mean,[2]; day 4,1.0
same,RTV Median,[2]; day 4,1.0
same,Tumour Volume [cm^3] Mean,[2]; day 4,0.001 cm^3
same,Tumour Volume [cm^3] Median,[2]; day 4,0.001 cm^3
same,T/C [%] (ratio of mean tumour volume of treated over control),[2]; day 7,71%
same,RTV Mean,[2]; day 7,8.8
same,RTV Median,[2]; day 7,9.0
same,Tumour Volume [cm^3] Mean,[2]; day 7,0.009 cm^3
same,Tumour Volume [cm^3] Median,[2]; day 7,0.009 cm^3
same,T/C [%] (ratio of mean tumour volume of treated over control),[2]; day 9,64%
same,RTV Mean,[2]; day 9,28.4
same,RTV Median,[2]; day 9,25.5
same,Tumour Volume [cm^3] Mean,[2]; day 9,0.028 cm^3
same,Tumour Volume [cm^3] Median,[2]; day 9,0.026 cm^3
same,T/C [%] (ratio of mean tumour volume of treated over control),[2]; day 10,35%
same,RTV Mean,[2]; day 10,29.9
same,RTV Median,[2]; day 10,25.5
same,Tumour Volume [cm^3] Mean,[2]; day 10,0.030 cm^3
same,Tumour Volume [cm^3] Median,[2]; day 10,0.026 cm^3
same,T/C [%] (ratio of mean tumour volume of treated over control),[2]; day 11,33%
same,RTV Mean,[2]; day 11,44.6
same,RTV Median,[2]; day 11,31.0
same,Tumour Volume [cm^3] Mean,[2]; day 11,0.045 cm^3
same,Tumour Volume [cm^3] Median,[2]; day 11,0.031 cm^3
same,reduction of tumour growth,[2]; topical treatment with 5% 6027 vs vehicle,significant reduction of tumour growth
same,apoptotic cells (TUNEL positive cells),[3],Significant increase
same,cell proliferation (Ki67),[3],significantly reduced
same,Acceptor (%),[4],0.2%
same,Donor (%),[4],79%
same,Skin extraction (%) (skin penetration),[4],16%
